Here are results for one molecule from patent US9891239B2, “Modulators of pharmacokinetic properties of therapeutics” (Gilead Sciences, Inc., priority 2007, dated 2018).

The subject of the experiment is wild-type HIV-1 strain IIIB. Briefly: Anti-HIV-1 cell culture assay (EC50), XTT readout of cytopathic effect in MT2 cells. Type of experiment: cell-based. Conditions: Human immunodeficiency virus 1, IIIB, MT2, 120 h, read-out: protease inhibition activity represented by HIV EC50. As to the method: The assay is based on quantification of the HIV-1-associated cytopathic effect by a […] detection of the viability of virus-infected cells in the presence or absence of tested inhibitors. HIV-1-induced cell death was determined using a metabolic substrate 2,3-bis(2-methoxy-4-nitro-5-sulfophenyl)-2H-tetrazolium-5-carboxanilide (XTT) which is converted only by intact cells into a product with specific absorption characteristics as described by Weislow O S, Kiser R, Fine D L, Bader J, Shoemaker R H and Boyd M R, J. Natl. Cancer Inst. 81, 577 (1989) (herein incorporated by reference in its entirety for all purposes). […]
To determine the antiviral activity of the tested inhibitors, a substrate XTT solution (6 mL per assay plate) at a concentration of 2 mg/mL in a phosphate-buffered saline pH 7.4 was heated in water-bath for 5 min at 55° C. before 50 μl of N-methylphenazonium methasulfate (5 μg/mL) was added per 6 mL of XTT solution. […] Viability, as determined by the amount of XTT metabolites produced, was quantified spectrophotometrically by the absorbance at 450 nm (with subtraction of the background absorbance at 650 nm). […]
(In general: Formazan colour is commonly taken as a measure of viable cells.)

In the case of `CC(C)c1nc(CN(C)C(=O)N[C@@H](CCN2CCOCC2)C(=O)N[C@H](CC[C@H](Cc2ccccc2)NC(=O)OCc2cncs2)Cc2ccccc2)cs1` [Example S], the EC50 (usually the concentration at which the effect is half-maximal) was above 30 µM.
